pIC50: −log10 of the molar value.
Tests used:
CYP1B1 = target: T1, CYP1B1 (Homo sapiens, UniProt Q16678); assay: in vitro
T1 sequence (Q16678 whole entry): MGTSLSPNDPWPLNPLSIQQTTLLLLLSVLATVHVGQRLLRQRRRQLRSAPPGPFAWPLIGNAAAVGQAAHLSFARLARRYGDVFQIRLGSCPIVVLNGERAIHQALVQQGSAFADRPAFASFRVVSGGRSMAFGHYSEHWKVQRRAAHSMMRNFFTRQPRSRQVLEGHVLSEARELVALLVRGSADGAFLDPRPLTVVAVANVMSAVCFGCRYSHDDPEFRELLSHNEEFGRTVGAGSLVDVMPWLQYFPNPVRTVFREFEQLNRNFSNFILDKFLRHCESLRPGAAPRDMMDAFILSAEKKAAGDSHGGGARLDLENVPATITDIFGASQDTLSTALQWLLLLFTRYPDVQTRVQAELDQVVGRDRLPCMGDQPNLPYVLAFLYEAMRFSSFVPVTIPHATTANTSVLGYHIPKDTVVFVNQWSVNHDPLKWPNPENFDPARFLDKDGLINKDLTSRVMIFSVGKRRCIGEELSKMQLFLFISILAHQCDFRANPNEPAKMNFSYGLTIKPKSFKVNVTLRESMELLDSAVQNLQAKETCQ
Description: Inhibition of recombinant human CYP1B1 expressed in Escherichia coli DH5aplha cells assessed as O-deethylation of ethoxyresorufin in presence of NADPH at 100 uM measured after 2 mins by spectrofluorometric method

CYP1A1 = CYP1A1 (Homo sapiens, UniProt P04798); assay: in vitro
Sequence of CYP1A1 (P04798 whole entry): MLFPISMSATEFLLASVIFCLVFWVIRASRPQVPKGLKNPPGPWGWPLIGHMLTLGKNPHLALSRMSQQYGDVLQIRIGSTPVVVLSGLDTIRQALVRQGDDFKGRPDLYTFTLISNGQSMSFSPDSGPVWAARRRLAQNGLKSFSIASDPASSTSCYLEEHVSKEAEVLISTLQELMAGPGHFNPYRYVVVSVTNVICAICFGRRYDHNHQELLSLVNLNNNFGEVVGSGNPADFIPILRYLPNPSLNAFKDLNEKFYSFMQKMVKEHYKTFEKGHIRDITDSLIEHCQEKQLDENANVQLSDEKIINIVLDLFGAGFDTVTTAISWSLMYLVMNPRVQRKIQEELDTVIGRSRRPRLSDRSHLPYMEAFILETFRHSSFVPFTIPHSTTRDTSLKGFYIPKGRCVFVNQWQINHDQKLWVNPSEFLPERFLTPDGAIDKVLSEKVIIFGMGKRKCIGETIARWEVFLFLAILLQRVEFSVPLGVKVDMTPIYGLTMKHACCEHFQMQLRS
Description: Inhibition of recombinant human CYP1A1 expressed in Escherichia coli DH5aplha cells assessed as O-deethylation of ethoxyresorufin in presence of NADPH at 100 uM measured after 2 mins by spectrofluorometric method

Cytochrome P450 1B1 = target: T2, Cytochrome P450 1B1 (Homo sapiens, UniProt Q16678)
T2 sequence (Q16678 whole entry): T1 sequence (Q16678 whole entry)
Description: Inhibition of recombinant human CYP1B1 expressed in Escherichia coli DH5aplha cells assessed as O-deethylation of ethoxyresorufin in presence of NADPH measured after 2 mins by spectrofluorometric method

Cytochrome P450 1A1 = Cytochrome P450 1A1 (Homo sapiens, UniProt P04798)
Sequence of Cytochrome P450 1A1 (P04798 whole entry): as above
Description: Inhibition of recombinant human CYP1A1 expressed in Escherichia coli DH5aplha cells assessed as O-deethylation of ethoxyresorufin in presence of NADPH measured after 2 mins by spectrofluorometric method

[1] = probe ethoxyresorufin (O-deethylation)

activity at 2 min, 100 µM (CYP1B1; [1]) [%]	activity at 2 min, 100 µM (CYP1A1; [1]) [%]	pIC50 (Cytochrome P450 1B1)	pIC50 (Cytochrome P450 1A1)	activity at 2 min, 100 µM (CYP1B1) [%]	Structure (SMILES)	activity at 2 min, 100 µM (CYP1A1) [%]
81	67	3.40	3.78	–	O=C(O)c1ccc(/N=N/N2CCOCC2)cc1	–
14	8	4.74	5.00	–	COc1cc(/N=N/N2CCOCC2)cc(OC)c1OC	–
59	–	5.15	4.20	–	Brc1ccc(/N=N/N2CCOCC2)cc1	53
75	100	< 3.92	–	–	Nc1ccc(C(=O)O)cc1 [AMINOBENZOIC ACID]	–
100	95	–	–	–	COc1cc(N)cc(OC)c1OC	–
74	56	3.79	3.92	–	c1ccc(/N=N/N2CCOCC2)cc1	–
100	70	–	4.09	–	CC(=O)c1ccc(/N=N/N2CCOCC2)cc1	–
–	79	5.70	3.94	16	O=[N+]([O-])c1ccc(/N=N/N2CCOCC2)cc1	–
–	11	4.26	4.47	56	Oc1ccc(/C=C/c2cc(O)cc(O)c2)cc1 [RESVERATROL]	–

Structure (SMILES)	activity at 2 min, 100 µM (CYP1B1; [1]) [%]	activity at 2 min, 100 µM (CYP1A1; [1]) [%]	pIC50 (Cytochrome P450 1B1)	pIC50 (Cytochrome P450 1A1)	activity at 2 min, 100 µM (CYP1B1) [%]	activity at 2 min, 100 µM (CYP1A1) [%]
Nc1ccc([N+](=O)[O-])cc1 [4-NITROANILINE]	92	100	–	–	–	–
Nc1ccccc1 [ANILINE]	100	100	–	–	–	–
Nc1ccc(Br)cc1 [4-BROMOANILINE]	94	100	–	–	–	–
C1COCCN1 [MORPHOLINE]	–	–	–	–	100	91
